Test results: publication PMC9127750, “Structure-based design of CDC42 effector interaction inhibitors for the treatment of cancer” (Cell reports, 2022)
“And” between values parts separate entries of the source, which are not always exact repeats. Equal values may be shown once.

Tested on: WM3248 melanoma cells, 486 antibodies
Assay: Reverse phase protein arrays (RPPA)
Assay type: cell-based, Human
Description: Pellets were snap frozen in liquid nitrogen and shipped to MD Anderson Cancer Center core RPPA facility for RPPA analysis (Table S5). Three biological replicates for each sample were generated.
Nomenclatures on the RPPA heatmaps: name_of_antibody.species_of_antibody.status_of_antibody. V - antibody validated; C - validation of antibody in progress; Q - antibody nonspecific; E – under evaluation; antibodies raised in M - mouse, G - goat, R - rabbit, or T - rat.

## CN(C)c1cccc(Nc2cc(-c3ccccc3)nc(C3CCNCC3)n2)c1 [ARN22089, N1,N1-dimethyl-N3-(6-phenyl-2-(piperidin-4-yl)pyrimidin-4-yl)benzene-1,3-diamine]
Level 10 vs 0
  LCN2.R.V Norm_10 Average: 1.417
  LDHA.R.C Norm_10 Average: 1.541
  LRP6_pS1490.R.V Norm_10 Average: 0.919
  Lasu1.R.V Norm_10 Average: 1.173
  MACC1.R.V Norm_10 Average: 0.973
  MAPK_pT202_Y204.R.C Norm_10 Average: 0.758
  MCT4.R.V Norm_10 Average: 0.926
  MDM2_pS166.R.V Norm_10 Average: 1.140
  MEK1.R.V Norm_10 Average: 1.376
  MEK1_pS217_S221.R.V Norm_10 Average: 0.904
  MEK2.R.V Norm_10 Average: 0.981
  MERIT40.R.C Norm_10 Average: 0.966
  MERIT40_pS29.R.V Norm_10 Average: 1.055
  METTL3.R.V Norm_10 Average: 1.153
  MIF.R.C Norm_10 Average: 1.003
  MIG6.R.V Norm_10 Average: 0.937
  MITF.R.V Norm_10 Average: 1.099
  MLH1.M.V Norm_10 Average: 0.965
  MLKL.R.V Norm_10 Average: 0.901
  MMP2.R.V Norm_10 Average: 0.936
  MMP14.R.V Norm_10 Average: 1.251
  MR1.M.C Norm_10 Average: 1.002
  MSH6.R.C Norm_10 Average: 1.139
  MSI2.R.C Norm_10 Average: 1.076
  MTCO1.M.V Norm_10 Average: 1.058
  MTSS1.M.C Norm_10 Average: 0.995
  Mcl.1.R.V Norm_10 Average: 0.815
  MelanA.R.C Norm_10 Average: 0.907
  Melanoma.gp100.R.C Norm_10 Average: 0.952
  Merlin.R.C Norm_10 Average: 1.140
  Midkine.R.V Norm_10 Average: 0.931
  Mitofusin.1.R.V Norm_10 Average: 0.966
  Mitofusin.2.R.V Norm_10 Average: 0.982
  Mnk1.R.V Norm_10 Average: 0.908
  mTOR_pS2448.R.C Norm_10 Average: 1.026
Level 10 vs 0, replicates
  HLA.DQA1.R.V Norm_10: 0.816 and 1.208 and 0.956
  HLA.DR.DP.DQ.DX.R.C Norm_10: 0.907 and 1.197
  HMHA1.R.V Norm_10: 0.915 and 0.873 and 0.979
  HNRNPK.R.V Norm_10: 0.952 and 0.960
  HSP27.M.C Norm_10: 0.892 and 1.008 and 0.976
  HSP27_pS82.R.V Norm_10: 0.956 and 0.808 and 0.983
  HSP60.R.V Norm_10: 0.910 and 0.899 and 0.970
  HSP70.R.C Norm_10: 0.893 and 0.957
  Hexokinase.I.R.C Norm_10: 1.324 and 1.263
  Hexokinase.II.R.V Norm_10: 1.158 and 1.060 and 1.165
  Hif.1αR.C Norm_10: 1.534 and 0.812 and 1.121
  Histone.H3.R.V Norm_10: 1.104 and 1.109 and 0.657
  Histone.H3_pS10.R.V Norm_10: 0.925 and 1.333 and 0.853
  IDO.R.C Norm_10: 1.020 and 0.847 and 1.005
  IGF1R_pY1135_Y1136.R.V Norm_10: 1.020 and 0.873 and 0.862
  IGFBP2.R.V Norm_10: 0.915 and 0.942
  IGFBP3.M.V Norm_10: 0.808 and 1.056 and 1.048
  IGFRb.R.C Norm_10: 1.063 and 0.914 and 0.882
  IL.6.R.C Norm_10: 0.956 and 0.898 and 0.919
  IMP3.R.C Norm_10: 0.902 and 1.022 and 0.935
  INPP4b.R.C Norm_10: 0.944 and 1.130 and 1.013
  IR.b.R.C Norm_10: 1.057 and 0.927 and 0.958
  IRF.1.R.V Norm_10: 0.995 and 0.851 and 0.777
  IRF.3.R.V Norm_10: 0.868 and 1.016 and 1.018
  IRS1.R.V Norm_10: 1.002 and 0.864 and 0.920
  IRS2.R.C Norm_10: 1.495 and 0.732 and 0.873
  JAB1.M.C Norm_10: 1.010
  JNK2.R.V Norm_10: 0.700 and 4.357 and 1.864
  JNK_pT183_Y185.R.C Norm_10: 1.101 and 0.836 and 0.927
  Jagged1.R.V Norm_10: 0.925 and 0.930 and 0.952
  Jak2.R.V Norm_10: 0.891 and 0.946
  KAP1.R.V Norm_10: 1.129 and 0.933 and 1.246
  KEAP1.R.V Norm_10: 1.137 and 0.961 and 0.953
  LAD1.R.V Norm_10: 0.810 and 0.787 and 1.126
  LC3A.B.R.C Norm_10: 1.080
  LCN2.R.V Norm_10: 1.979 and 1.149 and 1.123
  LDHA.R.C Norm_10: 1.080 and 1.446 and 2.097
  LRP6_pS1490.R.V Norm_10: 0.997 and 0.923 and 0.837
  Lasu1.R.V Norm_10: 0.972 and 1.377 and 1.170
  Lck.R.V Norm_10: 1.025
  Lyn.R.V Norm_10: 0.836 and 1.342 and 1.046
  MACC1.R.V Norm_10: 0.988 and 0.983
  MAPK_pT202_Y204.R.C Norm_10: 0.814 and 0.633 and 0.828
  MCT4.R.V Norm_10: 0.718 and 0.987
  MDM2_pS166.R.V Norm_10: 1.187 and 1.159
  MEK1.R.V Norm_10: 3.067 and 0.225 and 0.836
